In US7709458B2, “Method for inhibiting cancer cell proliferation or increasing cancer cell apoptosis” (priority 2004, dated 2010):

Assays:
[1] = test system: H508 human colon cancer cells; assay: H508 colon cancer cell proliferation assay (sulforhodamine B colorimetric assay); type: cell-based; settings: for effect on basal H508 cell proliferation / effect on EGF-induced H508 cell proliferation / effect on acetylcholine-induced H508 cell proliferation: 50 μM; for effect on basal H508 cell proliferation / potency in reducing acetylcholine- and EGF-stimulated H508 proliferation compared with c-di-GMP: 5 days incubation; for effect on EGF-induced H508 cell proliferation: EGF 1 ng/ml; for effect on EGF-induced H508 cell proliferation / effect on acetylcholine-induced H508 cell proliferation: 5 days; for effect on acetylcholine-induced H508 cell proliferation: acetylcholine 300 μM
Procedure: H508 colon cancer cell culture. H508 human colon cancer cells were grown in RPMI 1640 (ATCC) supplemented with 10% fetal bovine serum (FBS) (Biowhittaker). Adherent cultures were passaged weekly at subconfluence after trypsinization. Cultures were maintained in incubators at 37° C. in an atmosphere of 5% CO2 and 95% air.
H508 colon cancer cell proliferation assay. Cell proliferation was determined using the sulforhodamine B (SRB) colorimetric assay (Skehan et al., 1990). Cells were seeded in 96-well plates (Corning Glass Works, Corning, N.Y.) at approx. 10% confluence and allowed to attach for 24 h. Growth medium was removed and fresh medium without FBS and containing the indicated concentration of test agent was added. Cells were incubated for the indicated periods of time at 37° C. in an atmosphere of 5% CO2 and 95% air. After incubation, cells were treated for 30 min with 0.4% (w/v) SRB dissolved in 1% acetic acid. Protein-bound dye was extracted with unbuffered 10 mM Tris base. Absorbance was measured at 560 nm using a computer-interfaced, 96-well microtiter plate reader.
c-di-GMP inhibits proliferation of human colon cancer cells. The potential therapeutic actions of c-di-GMP were examined on basal and growth factor-stimulated proliferation of cells derived from a moderately differentiated human cecal adenocarcinoma (H508 cells) that express M3 muscarinic (M3R) and epidermal growth factor (EGF) receptors (EGFR) (Cheng et al., 2003). Cell proliferation was determined using the validated sulforhodamine B (SRB) calorimetric assay (Skehan et al., 1990). H508 cells were incubated in the absence or presence of a growth stimulant, acetylcholine (300 μM) and EGF (1 ng/ml) alone or with increasing concentrations of c-di-GMP (0.5-50 μM). After a 5-day incubation, the highest concentration of c-di-GMP tested, 50 μM, reduced basal H508 cell proliferation by approx. 15% (FIG. 1; p<0.05 compared to control, Student's unpaired t-test).

[2] = patients with Stage II or III disease; adjuvant chemotherapy (Bresalier, 2002); cited from earlier work

Row | SMILES | effect on basal H508 cell proliferation [1] | effect on EGF-induced H508 cell proliferation [1] | effect on acetylcholine-induced H508 cell proliferation [1] | potency in reducing acetylcholine- and EGF-stimulated H508 proliferation compared with c-di-GMP [1] | reduction of colon cancer mortality [2] | reduction of colon cancer recurrence [2]
1 | Nc1nc2c(ncn2[C@@H]2O[C@@H]3COP(=O)(O)O[C@H]3[C@H]2O)c(=O)[nH]1 [cGMP, guanosine 3′,5′-cyclic monophosphate, reference compound] | neither of the guanosine analogs tested, cGMP and 5′-GMP, altered basal proliferation | reduced | reduced | less potent in this action than c-di-GMP | – | –
2 | O=c1[nH]cc(F)c(=O)[nH]1 [5-fluorouracil] | – | – | – | – | 33% | 42%
3 | Nc1nc2c(ncn2[C@@H]2O[C@H](COP(=O)(O)O)[C@@H](O)[C@H]2O)c(=O)[nH]1 [5′-GMP, guanosine 5′-monophosphate, reference compound] | neither of the guanosine analogs tested, cGMP and 5′-GMP, altered basal proliferation | reduced | reduced | less potent in this action than c-di-GMP | – | –
